Experimental data: the NIST ThermoML archive (doi:10.1021/acs.jced.5b00784)

Tests used:
[1] = Liquid, isochoric method
[2] = xn = mol fraction of the nth substance listed; conditions: Liquid, Vibrating tube method, x2 = 0.377

FC(C(F)(F)F)C(F)(F)F [1,1,1,2,3,3,3-heptafluoropropane]
[1]
Conditions | mass density [kg/m3]
268.92 K, 1786 kPa | 1509.3
271.83 K, 3840 kPa | 1508.5
274.3 K, 5598 kPa | 1508.1
277.7 K, 8059 kPa | 1507.7
279.51 K, 839 kPa | 1466.6
280.8 K, 10284 kPa | 1507.3
281.32 K, 1993 kPa | 1465.2
283.42 K, 3331 kPa | 1464.8
283.61 K, 12288 kPa | 1507
285.37 K, 4577 kPa | 1464.6
286.43 K, 1142 kPa | 1441.9
286.67 K, 1203 kPa | 1440.9
286.7 K, 14495 kPa | 1506.7
287.36 K, 5848 kPa | 1464.3
288.43 K, 2193 kPa | 1440
289.14 K, 2747 kPa | 1440.7
289.31 K, 16361 kPa | 1506.4
289.41 K, 7162 kPa | 1464.1
290.44 K, 3367 kPa | 1439.5
291.46 K, 8474 kPa | 1463
292 K, 4466 kPa | 1440.2
292.45 K, 4875 kPa | 1439.1
293.4 K, 9717 kPa | 1463.7
294.61 K, 5846 kPa | 1438.9
294.98 K, 6251 kPa | 1439.8
295.29 K, 10924 kPa | 1463.5
296.72 K, 7101 kPa | 1438
297.18 K, 12136 kPa | 1463.3
297.85 K, 7978 kPa | 1439.5
298.7 K, 8273 kPa | 1438.5
299.38 K, 13527 kPa | 1463.1
300.87 K, 9562 kPa | 1438.2
300.89 K, 9788 kPa | 1439.2
301.4 K, 14839 kPa | 1462.9
302.74 K, 10686 kPa | 1438.1
302.94 K, 15829 kPa | 1462.8
303.82 K, 11544 kPa | 1438.9
304.8 K, 11916 kPa | 1437.9
306.88 K, 13381 kPa | 1438.6
306.95 K, 13205 kPa | 1437.7
309 K, 14427 kPa | 1437.5
310.05 K, 15281 kPa | 1438.3
311.05 K, 15654 kPa | 1437.3
312.85 K, 16727 kPa | 1437.1
312.95 K, 17014 kPa | 1438

COC(F)(F)C(F)(C(F)(F)F)C(F)(F)F [methyl nonafluoroisobutyl ether] + COC(F)(F)C(F)(F)C(F)(F)C(F)(F)F
[2]
Conditions | mass density [kg/m3]
275.02 K, 1984 kPa | 1579.6
277.09 K, 3723 kPa | 1579.2
279.26 K, 5543 kPa | 1578.7
279.43 K, 273 kPa | 1564.5
279.75 K, 524 kPa | 1564.4
279.75 K, 527 kPa | 1564.4
280.37 K, 972 kPa | 1563.7
280.46 K, 1101 kPa | 1564.3
280.94 K, 1442 kPa | 1564.2
281.34 K, 7289 kPa | 1578.3
281.55 K, 1942 kPa | 1563.5
281.92 K, 2278 kPa | 1564
281.94 K, 2249 kPa | 1564
282.38 K, 2648 kPa | 1563.9
283.21 K, 3315 kPa | 1563.7
283.5 K, 9101 kPa | 1577.9
283.65 K, 3673 kPa | 1563.6
284.04 K, 3949 kPa | 1563.6
284.44 K, 4290 kPa | 1563.5
285.1 K, 4838 kPa | 1563.3
285.42 K, 5083 kPa | 1563.3
285.49 K, 10769 kPa | 1577.5
285.94 K, 5471 kPa | 1563.2
286.26 K, 5744 kPa | 1563.1
286.26 K, 5757 kPa | 1563.1
286.61 K, 5994 kPa | 1562.5
286.95 K, 6330 kPa | 1562.9
287.26 K, 6535 kPa | 1562.3
287.54 K, 6765 kPa | 1562.9
287.54 K, 6789 kPa | 1562.9
287.59 K, 12510 kPa | 1577.1
287.68 K, 6872 kPa | 1562.8
288.04 K, 7178 kPa | 1562.8
288.9 K, 7893 kPa | 1562.5
289.56 K, 14156 kPa | 1576.7
289.6 K, 8425 kPa | 1562.5
289.6 K, 8448 kPa | 1562.5
289.6 K, 8462 kPa | 1562.2
289.72 K, 8502 kPa | 1562.4
291.62 K, 15869 kPa | 1576.2
291.67 K, 10052 kPa | 1562
291.67 K, 10070 kPa | 1562
291.67 K, 10101 kPa | 1562
292.61 K, 10815 kPa | 1561.9
292.7 K, 10872 kPa | 1561.2
293.44 K, 11481 kPa | 1561.7
293.52 K, 17446 kPa | 1575.9
294.31 K, 12183 kPa | 1561.5
295.32 K, 12982 kPa | 1561.3
295.59 K, 19153 kPa | 1575.4
296.29 K, 13751 kPa | 1561.1
298.57 K, 15560 kPa | 1560.7
299.64 K, 16411 kPa | 1560.5
300.65 K, 17215 kPa | 1560.3
301.34 K, 17761 kPa | 1560.1
302.6 K, 18751 kPa | 1559.9
302.6 K, 18786 kPa | 1559.9
